Laboratory results published in patent publication US20250215029A1 (Recludix Pharma, Inc., priority 2022, published 2025).

molecular target: T1, pY641-STAT6 in PBMC (Homo sapiens, UniProt P42226); test: MSD-pSTAT-PBMC Assay (pSTAT6, IL-4 stimulated); format: cell-based; settings: PBMC, compound 3 hrs, then 1 ng/mL IL-4 for 10 min; Table 115; read-out: STAT6
T1 construct: Cryopreserved Peripheral Blood Mononuclear Cells (PBMC) are from AllCells; host or cells: cryopreserved PBMC
T1 sequence (P42226 1-847): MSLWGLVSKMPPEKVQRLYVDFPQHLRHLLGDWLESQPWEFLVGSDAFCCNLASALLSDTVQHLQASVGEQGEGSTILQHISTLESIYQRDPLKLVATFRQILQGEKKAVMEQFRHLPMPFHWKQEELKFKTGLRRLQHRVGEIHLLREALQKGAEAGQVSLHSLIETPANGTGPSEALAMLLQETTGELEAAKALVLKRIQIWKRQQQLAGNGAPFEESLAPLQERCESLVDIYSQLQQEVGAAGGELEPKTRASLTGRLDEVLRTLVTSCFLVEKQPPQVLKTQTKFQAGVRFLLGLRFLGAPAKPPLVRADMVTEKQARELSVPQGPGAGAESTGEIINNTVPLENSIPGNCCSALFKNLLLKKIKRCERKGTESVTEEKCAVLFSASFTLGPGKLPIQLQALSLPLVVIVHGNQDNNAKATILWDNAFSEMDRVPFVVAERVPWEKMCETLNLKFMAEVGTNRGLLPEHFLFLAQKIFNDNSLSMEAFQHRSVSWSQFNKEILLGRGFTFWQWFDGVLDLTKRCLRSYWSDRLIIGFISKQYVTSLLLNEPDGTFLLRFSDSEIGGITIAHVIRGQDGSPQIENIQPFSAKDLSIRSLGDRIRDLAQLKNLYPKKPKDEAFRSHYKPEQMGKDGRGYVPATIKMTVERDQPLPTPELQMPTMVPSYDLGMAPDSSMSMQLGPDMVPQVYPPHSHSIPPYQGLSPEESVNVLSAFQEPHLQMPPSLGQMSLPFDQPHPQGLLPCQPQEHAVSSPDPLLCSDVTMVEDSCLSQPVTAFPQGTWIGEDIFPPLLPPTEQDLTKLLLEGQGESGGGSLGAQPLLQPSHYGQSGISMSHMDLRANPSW
In short: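 MSD electrochemiluminescence read-out: total STAT captured, probed with anti-pY641-STAT6 or anti-pY705-STAT3. Human PBMC, 3 h compound pretreatment, 10 min stimulation (IL-4 1 ng/mL or IL-6 10 ng/mL). Unstimulated signal subtracted, DMSO-normalized, variable-slope IC50.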

Structure (SMILES)	IC50 [nM]
CCCOC(=O)[C@H](C)NP(=O)(Oc1ccccc1)[C@@H](F)c1ccc2sc(C(=O)N[C@H]3CCCC[C@H]4CC[C@@H](C(=O)N5C[C@H](c6cccc(Cl)c6)[C@@H](C#N)C56CC6)N4C3=O)cc2c1 (stereo partly shown) [Compound 345]	< 100

same assay, conditions: STAT6, PBMC, compound 3 hrs, then 1 ng/mL IL-4 for 10 min; Table 115

Structure (SMILES)	IC50 [nM]
CCCOC(=O)[C@H](C)NP(=O)(Oc1ccccc1)[C@@H](F)c1ccc2sc(C(=O)N[C@H]3CCC[C@H]4CC[C@@H](C(=O)N5C[C@@H](c6ccn(C)c(=O)c6)CC56CC6)N4C3=O)cc2c1 (stereo partly drawn) [Compound 346, propyl (((R)-fluoro(2-(((3S,6S,9aS)-3-((R)-6-(1-methyl-2-oxo-1,2-dihydropyridin-4-yl)-4-azaspiro[2.4]heptane-4-carbonyl)-5-oxooctahydro-1H-pyrrolo[1,2-a]azepin-6-yl)carbamoyl)benzo [b]thiophen-5-yl)methyl)(phenoxy)phosphoryl)-L-alaninate]	< 100
CCCOC(=O)[C@H](C)NP(=O)(Oc1ccccc1)[C@H](F)c1ccc2ccc(C(=O)N[C@H]3CCCC[C@H]4CC[C@@H](C(=O)N5C[C@H](c6ccccc6)[C@@H](C#N)C56CC6)N4C3=O)cc2c1 (stereo partly drawn) [Compound 347, propyl (((S)-(7-(((3S,6S,10aS)-3-((6S,7R)-7-cyano-6-phenyl-4-azaspiro[2.4]heptane-4-carbonyl)-5-oxodecahydropyrrolo [1,2-a]azocin-6-yl)carbamoyl)naphthalen-2-yl)fluoromethyl) (phenoxy)phosphoryl)-L-alaninate]	< 100
COCCOC(=O)[C@H](COC)NP(=O)(Oc1ccccc1)[C@H](F)c1ccc2sc(C(=O)N[C@H]3CCC[C@H]4CC[C@@H](C(=O)N5C[C@H](c6ccccc6)[C@@H](C#N)C56CC6)N4C3=O)cc2c1 (stereo partly drawn) [Compound 348, 2-methoxyethyl N-(((S)-(2-(((3S,6S,9aS)-3-((6S,7R)-7-cyano-6-phenyl-4-azaspiro[2.4]heptane-4-carbonyl)-5-oxooctahydro-1H-pyrrolo[1,2-a]azepin-6-yl)carbamoyl)benzo [b]thiophen-5-yl)fluoromethyl) (phenoxy)phosphoryl)-O-methyl-L-serinate]	< 100
CCCOC(=O)[C@H](C)NP(=O)(Oc1ccccc1)[C@H](F)c1ccc2sc(C(=O)N[C@H]3C[C@@H](C)C[C@H]4CC[C@@H](C(=O)N5C[C@H](c6ccccc6)[C@@H](C#N)C56CC6)N4C3=O)cc2c1 (stereo partly drawn) [Compound 349, propyl (((S)-(2-(((3S,6S,8R,9aR)-3-((6S,7R)-7-cyano-6-phenyl-4-azaspiro[2.4]heptane-4-carbonyl)-8-methyl-5-oxooctahydro-1H-pyrrolo[1,2-a]azepin-6-yl)carbamoyl)benzo [b]thiophen-5-yl)fluoromethyl) (phenoxy)phosphoryl)-L-alaninate]	< 100
C[C@H](NP(=O)(Oc1ccccc1)[C@H](F)c1ccc2sc(C(=O)N[C@H]3CCC[C@H]4CC[C@@H](C(=O)N5C[C@H](c6ccccc6)[C@@H](C#N)C56CC6)N4C3=O)cc2c1)C(=O)OC1CC1 (stereo partly drawn) [Compound 350, cyclopropyl (((S)-(2-(((3S,6S,9aS)-3-((6S,7R)-7-cyano-6-phenyl-4-azaspiro[2.4]heptane-4-carbonyl)-5-oxooctahydro-1H-pyrrolo[1,2-a]azepin-6-yl)carbamoyl)benzo [b]thiophen-5-yl)fluoromethyl) (phenoxy)phosphoryl)-L-alaninate]	< 100
COCCOC(=O)[C@H](C)NP(=O)(Oc1ccccc1)[C@H](F)c1ccc2sc(C(=O)N[C@H]3CCC[C@H]4CC[C@@H](C(=O)N5C[C@H](c6ccccc6)[C@@H](C#N)C56CC6)N4C3=O)cc2c1 (stereo partly drawn) [Compound 351, 2-methoxyethyl (((S)-(2-(((3S,6S,9aS)-3-((6S,7R)-7-cyano-6-phenyl-4-azaspiro[2.4]heptane-4-carbonyl)-5-oxooctahydro-1H-pyrrolo[1,2-a]azepin-6-yl)carbamoyl)benzo [b]thiophen-5-yl)fluoromethyl) (phenoxy)phosphoryl)-L-alaninate]	< 100
